In ChEMBL document CHEMBL5712909, “WDR5 inhibition halts metastasis dissemination by repressing the mesenchymal phenotype of breast cancer cells” (2019):
Calls of active or inactive are those of the source. No cut-off for these calls is given here.

Assays:
[1] = tested on: MDA-MB-231; assay: Induction of cell cycle arrest in human MDA-MB-231 cells assessed as accumulation of cells in G2/M phase at 10 nM for 3 days by BrDU and PI staining based flow cytometric analysis (reference value: 19.3%); assay type: functional
[2] = tested on: MDA-MB-231; assay: Induction of cell cycle arrest in human MDA-MB-231 cells assessed as accumulation of cells in G0/G1 phase at 10 uM for 3 days by BrDU and PI staining based flow cytometric analysis (reference value: 30.5%); assay type: functional
[3] = tested on: MDA-MB-231; assay: Induction of cell cycle arrest in human MDA-MB-231 cells assessed as accumulation of cells in G0/G1 phase at 10 nM for 3 days by BrDU and PI staining based flow cytometric analysis (reference value: 30.5%); assay type: functional
[4] = tested on: MDA-MB-231; assay: Induction of cell cycle arrest in human MDA-MB-231 cells assessed as accumulation of cells in G2/M phase at 20 microM for 3 days by BrDU and PI staining based flow cytometric analysis (reference value: 19.3%); assay type: functional; settings: time 3 day
[5] = tested on: MDA-MB-231; assay: Induction of cell cycle arrest in human MDA-MB-231 cells assessed as accumulation of cells in G2/M phase at 10 uM for 3 days by BrDU and PI staining based flow cytometric analysis (reference value: 19.3%); assay type: functional
[6] = tested on: MCF-10A; assay: Inhibition of cell migration in human MCF-10A cells assessed as reduction in cell migration incubated for 3 days by crystal violet staining based transwell assay; assay type: functional; settings: dose 1-20 µM, time 3.0 day
[7] = tested on: MDA-MB-231; assay: Induction of cell cycle arrest in human MDA-MB-231 cells assessed as accumulation of cells in G0/G1 phase at 20 microM for 3 days by BrDU and PI staining based flow cytometric analysis (reference value: 30.5%); assay type: functional; settings: time 3 day
[8] = tested on: MCF10DCIS; assay: Inhibition of cell migration in human MCF10DCIS cells assessed as reduction in cell migration incubated for 3 days by crystal violet staining based transwell assay; assay type: functional; settings: dose 1-20 µM, time 3.0 day
[9] = tested on: MBC2; assay: Inhibition of cell migration in human MBC2 cells assessed as reduction in cell migration at 20 microM for 3 days by crystal violet staining based transwell assay; assay type: functional; settings: time 3.0 day
[10] = tested on: MDA-MB-231; assay: Induction of cell cycle arrest in human MDA-MB-231 cells assessed as accumulation of cells in S phase at 20 microM for 3 days by BrDU and PI staining based flow cytometric analysis (reference value: 45.7%); assay type: functional
[11] = tested on: MDA-MB-231; assay: Inhibition of cell migration in human MDA-MB-231 cells assessed as reduction in cell migration incubated for 3 days by crystal violet staining based transwell assay; assay type: functional; settings: dose 1-20 µM, time 3.0 day
[12] = tested on: MDA-MB-231; assay: Induction of cell cycle arrest in human MDA-MB-231 cells assessed as accumulation of cells in not cycling S phase at 20 microM for 3 days by BrDU and PI staining based flow cytometric analysis (reference value: 2.5%); assay type: functional
[13] = tested on: MBC26; assay: Antiproliferative activity against human MBC26 cells assessed as reduction in cell viability at 20 uM for 3 days by cell titre glo assay; assay type: functional, cell-based; settings: time 3.0 day
[14] = tested on: MBC26; assay: Inhibition of cell migration in human MBC26 cells assessed as reduction in cell migration at 20 microM for 3 days by crystal violet staining based transwell assay; assay type: functional; settings: time 3.0 day
[15] = tested on: MBC2; assay: Antiproliferative activity against human MBC2 cells assessed as reduction in cell viability at 20 uM for 3 days by cell titre glo assay; assay type: functional, cell-based; settings: time 3.0 day
[16] = tested on: MCF10DCIS; assay: Inhibition of cell migration in human MCF10DCIS cells assessed as reduction in cell migration at 10 microM for 3 days by crystal violet staining based transwell assay; assay type: functional; settings: time 3.0 day
[17] = tested on: MBC26; assay: Antiproliferative activity against human MBC26 cells assessed as reduction in cell viability at 10 uM for 3 days by cell titre glo assay; assay type: functional, cell-based; settings: time 3.0 day
[18] = tested on: MDA-MB-231; assay: Inhibition of cell migration in human MDA-MB-231 cells assessed as reduction in cell migration at 10 microM for 3 days by crystal violet staining based transwell assay; assay type: functional; settings: time 3.0 day
[19] = tested on: MDA-MB-231; assay: Induction of cell cycle arrest in human MDA-MB-231 cells assessed as accumulation of cells in S phase at 10 uM for 3 days by BrDU and PI staining based flow cytometric analysis (reference value: 45.7%); assay type: functional; settings: time 3 day
[20] = tested on: MDA-MB-231; assay: Induction of cell cycle arrest in human MDA-MB-231 cells assessed as accumulation of cells in S phase at 10 nM for 3 days by BrDU and PI staining based flow cytometric analysis (reference value: 45.7%); assay type: functional
[21] = tested on: MDA-MB-231; assay: Induction of cell cycle arrest in human MDA-MB-231 cells assessed as accumulation of cells in not cycling S phase at 10 uM for 3 days by BrDU and PI staining based flow cytometric analysis (reference value: 2.5%); assay type: functional; settings: time 3 day
[22] = tested on: MDA-MB-231; assay: Induction of cell cycle arrest in human MDA-MB-231 cells assessed as accumulation of cells in not cycling S phase at 10 nM for 3 days by BrDU and PI staining based flow cytometric analysis (reference value: 2.5%); assay type: functional
[23] = tested on: MBC2; assay: Antiproliferative activity against human MBC2 cells assessed as reduction in cell viability at 10 uM for 3 days by cell titre glo assay; assay type: functional, cell-based; settings: time 3.0 day
[24] = tested on: MBC26; assay: Cytotoxicity against human MBC26 cells assessed as cell viability for 3 days at 1 to 10 nM in presence of -Gaulnisertib; assay type: functional, cell-based; settings: dose 1-10 nM, time 3.0 day
[25] = tested on: MDA-MB-231; assay: Induction of cell cycle arrest in human MDA-MB-231 cells assessed as DNA damage by measuring gamma H2AX phosphorylation at 10 nM for 3 days in presence of OICR-9429 by Western blot analysis; assay type: functional, cell-based; settings: time 3.0 day
[26] = tested on: MDA-MB-231; assay: Induction of cell cycle arrest in human MDA-MB-231 cells assessed as DNA damage by measuring gamma H2AX phosphorylation at 10 nM for 3 days in presence of galunisertib by Western blot analysis; assay type: functional, cell-based; settings: time 3.0 day
[27] = tested on: MBC2; assay: Cytotoxicity against human MBC2 cells assessed as cell viability at 1 to 10 nM for 3 days in presence of OCIR-9429; assay type: functional, cell-based; settings: dose 1-10 nM, time 3.0 day
[28] = tested on: MDA-MB-231; assay: Induction of cell cycle arrest in human MDA-MB-231 cells assessed as accumulation of cells in S phase at 10 nM for 3 days in presence of OCIR-9429 by BrDU and PI staining based flow cytometric analysis (reference value: 45.7%); assay type: functional; settings: time 3 day
[29] = tested on: MDA-MB-231; assay: Cytotoxicity against human MDA-MB-231 cells assessed as cell viability at 10 nM for 3 days in presence of galunisertib relative to control; assay type: functional; settings: MDA-MB-231, 72 h, time 3 day, read-out: Activity
[30] = tested on: MDA-MB-231; assay: Induction of cell cycle arrest in human MDA-MB-231 cells assessed as accumulation of cells in G0/G1 phase at 10 nM for 3 days in presence of OCIR-9429 by BrDU and PI staining based flow cytometric analysis (reference value: 30.5%); assay type: functional; settings: time 3 day
[31] = tested on: MDA-MB-231; assay: Induction of cell cycle arrest in human MDA-MB-231 cells assessed as accumulation of cells in not cycling S phase at 10 nM for 3 days in presence of galunisertib by BrDU and PI staining based flow cytometric analysis (reference value: 2.5%); assay type: functional; settings: time 3 day
[32] = tested on: MDA-MB-231; assay: Cytotoxicity against human MDA-MB-231 cells assessed as cell viability at 10 nM for 3 days in presence of OCIR-9429 relative to control; assay type: functional; settings: MDA-MB-231, 72 h, time 3 day, read-out: Activity
[33] = tested on: MDA-MB-231; assay: Induction of cell cycle arrest in human MDA-MB-231 cells assessed as cleaved PARP at 10 nM for 3 days in presence of galunisertib by Western blot analysis; assay type: functional, cell-based; settings: time 3.0 day
[34] = tested on: MDA-MB-231; assay: Induction of cell cycle arrest in human MDA-MB-231 cells assessed as accumulation of cells in not cycling S phase at 10 nM for 3 days in presence of OCIR-9429 by BrDU and PI staining based flow cytometric analysis (reference value: 2.5%); assay type: functional; settings: time 3 day
[35] = tested on: MBC26; assay: Cytotoxicity against human MBC26 cells assessed as cell viability for 3 days at 1 to 10 nM in presence of OCIR-9429; assay type: functional, cell-based; settings: dose 1-10 nM, time 3.0 day
[36] = tested on: MDA-MB-231; assay: Induction of cell cycle arrest in human MDA-MB-231 cells assessed as cleaved PARP at 10 nM for 3 days in presence of OICR-9429 by Western blot analysis; assay type: functional, cell-based; settings: time 3.0 day
[37] = tested on: MDA-MB-231; assay: Induction of cell cycle arrest in human MDA-MB-231 cells assessed as accumulation of cells in G2/M phase at 10 nM for 3 days in presence of OCIR-9429 by BrDU and PI staining based flow cytometric analysis (reference value: 19.3%); assay type: functional; settings: time 3 day
[38] = tested on: MBC2; assay: Cytotoxicity against human MBC2 cells assessed as cell viability at 1 to 10 nM for 3 days in presence of galunisertib; assay type: functional, cell-based; settings: dose 1-10 nM, time 3.0 day
[39] = tested on: MDA-MB-231; assay: Induction of cell cycle arrest in human MDA-MB-231 cells assessed as accumulation of cells in G2/M phase at 10 nM for 3 days in presence of galunisertib by BrDU and PI staining based flow cytometric analysis (reference value: 19.3%); assay type: functional; settings: time 3 day
[40] = tested on: MDA-MB-231; assay: Induction of cell cycle arrest in human MDA-MB-231 cells assessed as accumulation of cells in G0/G1 phase at 10 nM for 3 days in presence of galunisertib by BrDU and PI staining based flow cytometric analysis (reference value: 30.5%); assay type: functional; settings: time 3 day
[41] = tested on: MDA-MB-231; assay: Induction of cell cycle arrest in human MDA-MB-231 cells assessed as accumulation of cells in S phase at 10 nM for 3 days in presence of galunisertib by BrDU and PI staining based flow cytometric analysis (reference value: 45.7%); assay type: functional; settings: time 3 day

In the case of `CN1CCN(c2ccc(-c3cccc(CN4CCOCC4)c3)cc2NC(=O)c2c[nH]c(=O)cc2C(F)(F)F)CC1`, the Activity ([1]; time 3.0 day) was “Active”, the Activity ([2]; time 3.0 day) was “inactive” and the Activity ([3]; time 3.0 day) was “Active”. The Activity [4] was 19.1%, the Activity ([5]; time 3.0 day) was “Active” and the inhibition [6] was “inactive”. For the same compound, the Activity [7] was 32.3%, the inhibition [8] was “Dose-Dependent Effect” and the inhibition [9] was “Active”. The Activity ([10]; time 3 day) was 46%, the inhibition [11] was “Dose-Dependent Effect” and the Activity ([12]; time 3 day) was 2.2%. For the same compound, the Activity [13] was “inactive”, the inhibition [14] was “Active” and the Activity [15] was “inactive”.
`Cc1cccc(-c2nn3c(c2-c2ccnc4ccc(C(N)=O)cc24)CCC3)n1` [GALUNISERTIB] was tested, and the inhibition [16] was “Active”, the Activity [17] was “inactive” and the Activity ([2]; time 3 day) was 30.4%. For the same compound, the inhibition [18] was “Active”, the Activity [19] was 48.8% and the Activity ([5]; time 3 day) was 18.5%. The Activity ([20]; time 3.0 day) was “Active”, the Activity [21] was 1.5% and the Activity ([22]; time 3.0 day) was “Active”. For the same compound, the Activity ([10]; time 3.0 day) was “inactive”, the Activity ([12]; time 3.0 day) was “inactive” and the Activity [23] was “inactive”.
For `CC(=O)O[C@H]1C(=O)[C@@]2(C)[C@H]([C@H](OC(=O)c3ccccc3)[C@]3(O)C[C@H](OC(=O)[C@H](O)[C@@H](NC(=O)c4ccccc4)c4ccccc4)C(C)=C1C3(C)C)[C@]1(OC(C)=O)CO[C@@H]1C[C@@H]2O` [PACLITAXEL], the Activity ([1]; time 3 day) was 31.7%, the Activity [24] was “Active” and the Activity [25] was “Active”. For the same compound, the Activity [26] was “Active”, the Activity [27] was “Active” and the Activity [28] was 26.7%. It also gave a viability at 0.01 µM [29] of 10%, an Activity ([3]; time 3 day) of 19.2% and an Activity [30] of 22.4%. For the same compound, the Activity [31] was 8%, the viability at 0.01 µM [32] was 10% and the Activity [33] was “Active”. For the same compound, the Activity [34] was 11.9%, the Activity [35] was “Active” and the Activity ([20]; time 3 day) was 38.6%. The Activity [36] was “Active”, the Activity [37] was 37.5% and the Activity [38] was “Active”. For the same compound, the Activity ([22]; time 3 day) was 9.2%, the Activity [39] was 40.1% and the Activity [40] was 16.7%. For the same compound, the Activity [41] was 34%.
